Patent US20120283313A1, “INHIBITION AND TREATMENT OF PROSTATE CANCER METASTASIS” (NORTHWESTERN UNIVERSITY, priority 2007, published 2012)
“Also recorded” adds a separate entry of the source. Like-named read-outs stand apart in the source and are kept apart here.

What was measured:
[1] = tested on: human prostate cancer (PCa) cell lines; test: cell invasion assay of PCa cell lines with genistein / siMEK4; type: cell-based
From the text: MEK expression was examined in six human prostate cancer (PCa) cell lines: PC3 and PC3-M metastatic PCa cells, 1532CPTX and 1542 CPTX immortalized localized PCa cells, and 1532 NPTX and 1542 NPTX immortalized normal epithelial cells. The last four cell lines are primary cells, are HPV transformed, and thus represent early stages of prostate carcinogenesis. They provide representative members of the metastatic phenotype, as well as members of early state phenotypes. […] All six cell lines also secrete as well as respond to TGFβ, a regulator of cell motility that plays a role in PCa cell invasiveness.
Assays were conducted using methods as described in Craft et al. (2008, Mol. Pharmocol., 73(1):235-242; herein incorporated by reference in its entirety).

MEK4 = test: TGFβ stimulated phosphorylation of MEK4 in vivo; type: cell-based
Protocol: Phosphorylation by MEK4 (FIG. 4A) and phosphorylation of MEK4 (FIG. 7) was assayed. The Upstate Biotechnology MEK4 assay system was used to measure inhibition of MEK4 activity. Phosphorylation of MEK4 in vivo was assayed using standard techniques.

p38 MAP kinase = test: Western blot of primary tumor tissue for p38 MAP kinase; type: in vivo, mice; conditions: fresh frozen primary tumor tissue
PC3M cells = test: quantitative image analysis of nuclear morphology, mouse tissue; type: in vivo, mice; conditions: 250 mg genistein vs controls
From the text: Change in cell morphology is a generally recognized measure of change in cell adhesion. Compounds which increase cell adhesion of prostate cancer cells in vivo may inhibit prostate cancer metastasis. […] Quantitative image analysis according to established methods was used to measure in vivo changes in nuclear morphology in the prostate. (Bartels, et al., Prostate, 48:144-55, (2001); Boone, et al., Urology, 57:129-31 (2001); Bartels, et al., Anal. Quant. Cytol. Histol. 20:397-406 (1998); Bartels et al., Anal. Quant. Cytol. Histol. 20:389-96; Veltri, et al., J. Cell Biochem. Suppl., 151-57 (2000); herein incorporated by reference in their entireties).
Mouse: From the mouse experiment of Example 5, primary (prostate gland) and metastatic (local lymph nodes) tissue was Feulgen-stained, and the nuclear morphology of PC3M cells was quantitated on a ChromaVision ACIS® II Image Analysis System. […] Specifically, for lymph node: cell area increased by 19.5±2.1%, cell length by 9.1±1.1%, and cell width by 9.5±1.1% (p:S 0.01 for all). For primary tumor: cell length increased by 3.0±1.1% (p:S 0.05).

MMP-2 = test: Phase 2 trial: MMP-2 transcript levels by LCM and qRT/PCR; type: in vivo, human; conditions: normal prostate epithelial cells, 2 mg genistein/kg/day, normalized to GAPDH
[2] = tested on: prostate epithelial cells; test: Phase 2 trial: nuclear morphology of prostate epithelial cells; type: in vivo, human; conditions: men, genistein treated vs controls
From the text: Though morphologically “normal,” these cells are present within organs with PCa, have pre-cancer molecular changes, and represent an appropriate target cell type for therapy that inhibits a process associated with PCa progression, in this case, development of the metastatic phenotype. […] These findings are consistent with its effects in vitro and in mice.

[3] = tested on: prostate epithelial cells; test: Phase 2 trial: LCM and 12K gene array of prostate epithelial cells; type: in vivo, human
From the text: In particular, methodology was employed wherein prostate epithelial cells are selectively removed from human prostate tissue by laser capture microdissection (LCM), the resultant RNA linear amplified, and custom manufactured 12K gene arrays are probed. Ding, et al., Id.

[4] = mice, free about a tenth of total
[5] = men, 2 mg genistein/kg/day for 1 month
[6] = men, 2 to 8 mg genistein/kg; cited from earlier work
human PC3-M PCa cells = test: orthotopic PC3-M implantation metastasis model in athymic mice

estimated free concentration ([4]; 100 mg cohort): 29 nM
estimated free concentration ([4]; 250 mg cohort): 131 nM
trough concentration of free genistein, mean±SEM [5]: 26.6 ± 6.6 nM
SMILES: O=c1c(-c2ccc(O)cc2)coc2cc(O)cc(O)c12 [genistein]
effect of genistein on invasiveness when MEK4 expression suppressed by siMEK4 ([1]; PCa cells, genistein plus siMEK4): the effect of genistein was abrogated
invasion of PCa cells ([1]; early and late stage PCa cell lines, presence of genistein): inhibits invasion of both early and late stage PCa cells
TGFβ stimulated phosphorylation of MEK4 (MEK4): does not block TGF-β stimulated phosphorylation of MEK4 itself; also recorded: does not block such phosphorylation
level of total p38 MAP kinase protein (p38 MAP kinase): total amount of p38 MAP kinase increased
phosphorylation of p38 MAP kinase (p38 MAP kinase): decreasing phosphorylation of p38 MAP kinase; also recorded: decreased its phosphorylation
increase in cell area (PC3M cells; lymph node): 19.5±2.1%
increase in cell length (PC3M cells; lymph node): 9.1±1.1%
increase in cell width (PC3M cells; lymph node): 9.5±1.1%
increase in cell length (PC3M cells; primary tumor): 3.0±1.1%
MMP-2 transcript level, percent of controls (mean±SEM) (MMP-2): 24±4.1%
increase in length (nuclear morphology) [2]: 1.5±0.7%
increase in width (nuclear morphology) [2]: 2.7±0.7%
increase in area (nuclear morphology) ([2]; only a trend): 2.0±1.0%
gene array expression level, mean (SE) ([3]; MALATI, genistein-treated subjects): 8.22 (0.87)
gene array expression level, mean (SE) ([3]; brain acid-soluble protein 1, genistein-treated subjects): 13.3 (0.34)
gene array expression level, mean (SE) ([3]; heat shock protein 90, genistein-treated subjects): 8.51 (0.5)
gene array expression level, mean (SE) ([3]; heparin cofactor II, genistein-treated subjects): 2.19 (0.21)
gene array expression level, mean (SE) ([3]; prostate acid phosphatase, genistein-treated subjects): 6.85 (0.49)
gene array expression level, mean (SE) ([3]; sorbitol dehydrogenase, genistein-treated subjects): 5.33 (0.59)
peak concentration of total genistein [6]: 4.3 to 16.3 nM
tumor volume (human PC3-M PCa cells; 0, 100, 250 mg genistein/kg chow): but not tumor volume
weight of mice (human PC3-M PCa cells; between dosing cohorts): no difference in the weight of mice between cohorts
